Results published in the NIST ThermoML archive (doi:10.1021/acs.jced.7b00201).

Assay: xn = mol fraction of the nth substance listed
Conditions: 100 kPa, Liquid; for viscosity: Falling or rolling sphere viscometry; for mass density: Vibrating tube method

OCC1CC1 [cyclopropylmethanol] + CCCCCCCCCCCC
Conditions | mass density [kg/m3] | viscosity [mPa·s]
293.15 K, x1 = 0.1039 | – | 1.484
293.15 K, x1 = 0.1135 | 754.8 | –
293.15 K, x1 = 0.2032 | – | 1.521
293.15 K, x1 = 0.2127 | 761.38 | –
293.15 K, x1 = 0.3022 | – | 1.605
293.15 K, x1 = 0.3059 | 768.71 | –
293.15 K, x1 = 0.3804 | 775.49 | –
293.15 K, x1 = 0.3997 | – | 1.683
293.15 K, x1 = 0.4993 | – | 1.884
293.15 K, x1 = 0.5067 | 789.46 | –
293.15 K, x1 = 0.5994 | – | 2.084
293.15 K, x1 = 0.6019 | 802.62 | –
293.15 K, x1 = 0.7 | – | 2.335
293.15 K, x1 = 0.7011 | 819.64 | –
293.15 K, x1 = 0.7921 | 839.53 | –
293.15 K, x1 = 0.797 | – | 2.671
293.15 K, x1 = 0.8991 | 870.68 | –
293.15 K, x1 = 0.9004 | – | 3.205
293.15 K, x1 = 1 | 912.99 | 4.029
298.15 K, x1 = 0.1039 | – | 1.354
298.15 K, x1 = 0.1135 | 751.08 | –
298.15 K, x1 = 0.2032 | – | 1.382
298.15 K, x1 = 0.2127 | 757.63 | –
298.15 K, x1 = 0.3022 | – | 1.455
298.15 K, x1 = 0.3059 | 764.92 | –
298.15 K, x1 = 0.3804 | 771.68 | –
298.15 K, x1 = 0.3997 | – | 1.52
298.15 K, x1 = 0.4993 | – | 1.688
298.15 K, x1 = 0.5067 | 785.59 | –
298.15 K, x1 = 0.5994 | – | 1.854
298.15 K, x1 = 0.6019 | 798.72 | –
298.15 K, x1 = 0.7 | – | 2.068
298.15 K, x1 = 0.7011 | 815.7 | –
298.15 K, x1 = 0.7921 | 835.57 | –
298.15 K, x1 = 0.797 | – | 2.35
298.15 K, x1 = 0.8991 | 866.69 | –
298.15 K, x1 = 0.9004 | – | 2.801
298.15 K, x1 = 1 | 908.94 | 3.485
303.15 K, x1 = 0.1039 | – | 1.241
303.15 K, x1 = 0.1135 | 747.35 | –
303.15 K, x1 = 0.2032 | – | 1.276
303.15 K, x1 = 0.2127 | 753.86 | –
303.15 K, x1 = 0.3022 | – | 1.325
303.15 K, x1 = 0.3059 | 761.1 | –
303.15 K, x1 = 0.3804 | 767.83 | –
303.15 K, x1 = 0.3997 | – | 1.38
303.15 K, x1 = 0.4993 | – | 1.521
303.15 K, x1 = 0.5067 | 781.69 | –
303.15 K, x1 = 0.5994 | – | 1.662
303.15 K, x1 = 0.6019 | 794.79 | –
303.15 K, x1 = 0.7 | – | 1.842
303.15 K, x1 = 0.7011 | 811.73 | –
303.15 K, x1 = 0.7921 | 831.56 | –
303.15 K, x1 = 0.797 | – | 2.081
303.15 K, x1 = 0.8991 | 862.66 | –
303.15 K, x1 = 0.9004 | – | 2.463
303.15 K, x1 = 1 | 904.85 | 3.037
308.15 K, x1 = 0.1039 | – | 1.142
308.15 K, x1 = 0.1135 | 743.6 | –
308.15 K, x1 = 0.2032 | – | 1.171
308.15 K, x1 = 0.2127 | 750.06 | –
308.15 K, x1 = 0.3022 | – | 1.213
308.15 K, x1 = 0.3059 | 757.26 | –
308.15 K, x1 = 0.3804 | 763.96 | –
308.15 K, x1 = 0.3997 | – | 1.258
308.15 K, x1 = 0.4993 | – | 1.378
308.15 K, x1 = 0.5067 | 777.76 | –
308.15 K, x1 = 0.5994 | – | 1.497
308.15 K, x1 = 0.6019 | 790.82 | –
308.15 K, x1 = 0.7 | – | 1.65
308.15 K, x1 = 0.7011 | 807.72 | –
308.15 K, x1 = 0.7921 | 827.52 | –
308.15 K, x1 = 0.797 | – | 1.853
308.15 K, x1 = 0.8991 | 858.59 | –
308.15 K, x1 = 0.9004 | – | 2.176
308.15 K, x1 = 1 | 900.74 | 2.661
313.15 K, x1 = 0.1039 | – | 1.055
313.15 K, x1 = 0.1135 | 739.84 | –
313.15 K, x1 = 0.2032 | – | 1.079
313.15 K, x1 = 0.2127 | 746.24 | –
313.15 K, x1 = 0.3022 | – | 1.114
313.15 K, x1 = 0.3059 | 753.4 | –
313.15 K, x1 = 0.3804 | 760.06 | –
313.15 K, x1 = 0.3997 | – | 1.153
313.15 K, x1 = 0.4993 | – | 1.254
313.15 K, x1 = 0.5067 | 773.81 | –
313.15 K, x1 = 0.5994 | – | 1.355
313.15 K, x1 = 0.6019 | 786.82 | –
313.15 K, x1 = 0.7 | – | 1.485
313.15 K, x1 = 0.7011 | 803.68 | –
313.15 K, x1 = 0.7921 | 823.45 | –
313.15 K, x1 = 0.797 | – | 1.658
313.15 K, x1 = 0.8991 | 854.48 | –
313.15 K, x1 = 0.9004 | – | 1.933
313.15 K, x1 = 1 | 896.58 | 2.344
318.15 K, x1 = 0.1039 | – | 0.977
318.15 K, x1 = 0.2032 | – | 0.998
318.15 K, x1 = 0.3022 | – | 1.028
318.15 K, x1 = 0.3997 | – | 1.06
318.15 K, x1 = 0.4993 | – | 1.146
318.15 K, x1 = 0.5994 | – | 1.232
318.15 K, x1 = 0.7 | – | 1.343
318.15 K, x1 = 0.797 | – | 1.491
318.15 K, x1 = 0.9004 | – | 1.725
318.15 K, x1 = 1 | – | 2.074
